Reference: patent US11484608B2, “Non-invasive assessment of hepatic mitochondrial metabolism by positional isotopomer NMR tracer analysis (PINTA)” (YALE UNIVERSITY, priority 2017, dated 2022)
Like-named read-outs stand apart in the source and are kept apart here.

Tests used:
[1] = system: hepatic mitochondrial fluxes (VPC, VCS); experiment: PINTA / ex vivo NMR tracer study in rats infused with [3-^13C]lactate and [3-^3H]glucose (Example 1); details: for VPDH/VCS (%) / VPK+ME/VPC+PDH (%): rat liver; for VPDH/VCS (%) / VPK+ME/VPC+PDH (%) / VPC/VEGP (%): 120 min [3-^13C]lactate infusion, mean ± S.E.M.; for VPC/VEGP (%): rats
Text: Male Sprague-Dawley rats (˜10 weeks of age) were ordered from Charles River (Wilmington, Mass.) at ˜300 g and fed regular chow unless otherwise specified. […] Prior to studies, rats underwent surgery under general isoflurane anesthesia to place polyethylene catheters in the jugular vein and common carotid artery (PE90 and PE50 tubing, respectively; Instech, Plymouth Meeting, Pa.). After 1 week, recovery was verified by confirming that the rats had regained their surgical weight. Unless otherwise specified, all experiments were performed following an overnight fast (16 hrs food withdrawal prior to sacrifice). In both the rodent and human studies, data are represented as the mean of two technical replicates for each subject (i.e. two technical replicates per biological replicate). Sample sizes were selected to give power to detect moderate to large differences between groups (n=5-6 per group), and all animals were included in the final analysis.
The investigator performing the animal studies was not blinded for practical reasons, but the investigators analyzing fluxes were blinded as to the group allocation.
The flux calculations required the following equations using [^13C] glucose positional enrichment in plasma or liver, determined by NMR and GC/MS mass spectrometry. VPC is the rate of pyruvate carboxylase flux as determined from the anaplerotic flow into oxaloacetate (OAA). VCS is defined as the flux of the citrate synthase reaction in the citric acid cycle. […] G2 denotes [m+2] glucose arising from the condensation of two singly-labeled trioses.
GC/MS was used to measure m+1 and m+2 [^13C]glucose enrichment. The total m+1 and m+2 [^13C]glucose enrichment was measured using a pentaacetate derivative: plasma or liver samples were deproteinized using 5 volumes of methanol, dried, and derivatized with 75 μL of 1:1 acetic anhydride:pyridine. After heating to 65° C. for 20 min, the reaction was terminated by adding 25 μL methanol, and m+1 and m+2 (as well as m+3 . . . m+6) were determined by GC/MS (CI mode, m/z 331 [m], 332 [m+1], 333 [m+2], . . . 337 [m+6]). The m+1 and m+2 [^13C] enrichments of the glucose C4C5C6 fragment were determined by generating the aldonitrile pentapropionate derivative: plasma or NMR liver extract samples were dried under N2 gas, and 50 μl hydroxylamine hydrochloride (20 mg/ml in pyridine) were added. The samples were heated at 90° C. for 60 min, then 100 μl propionic anhydride was added, after which the samples were heated at 60° C. for 30 min. Finally, the samples were evaporated under N2 gas, resuspended in ethyl acetate, and the m+1 and m+2 enrichment of the glucose C4C5C6 fragment was measured by GC/MS.
[^13C]alanine enrichment was measured by GC/MS. [^13C] NMR spectroscopy using the BRUKER TOPSPIN® system was utilized to measure relative positional 13C-enrichment of glucose, and combined with the total [^13C]glucose enrichment ([m+1]+2*[m+2]) measured by GC/MS to calculate the positional enrichment of [13C]glucose.
Total [^13C]glutamate enrichment was determined by LC-MS/MS. Approximately 100 mg of liver tissue was weighed out and homogenized in 500 μl ice-cold methanol using a TissueLyser, then centrifuged at 4000 rpm for 10 minutes. The supernatant was then purified by centrifugation (4000 rpm, 10 min) through the PALL NANOSEP® filter (100K) (Port Washington, N.Y.). Glutamate 13C enrichment ([m+1], [m+2]) was then assessed by LC-MS/MS using an AB SCIEX QTRAP 6500 (Framingham, Mass.), equipped with a SHIMADZU ultra-fast liquid chromatography (UFLC) system (Columbia, Md.) and electrospray ionization (ESI) source with negative-ion detection. The measured ion pairs were 146/128 (m0), 147/129 (m+1), and 148/130 (m+2).
Positional enrichment of glucose, glutamate, and alanine was measured by 13C NMR.

[2] = system: primary mouse hepatocytes; experiment: In vitro glucose production, VPC and lipolysis in isolated hepatocytes; type: cell-based; details: isolated hepatocytes, 1 mM hydroxymalonate
Description: For in vitro glucose production and lipolysis studies, primary mouse hepatocytes were isolated by the Yale Liver Center. Following removal of cell debris by Percoll density gradient centrifugation, cells were plated on 6-well collagen-I coated dishes (4.0×10^5 cells/well) in 2 ml recovery media (DMEM High Glucose containing 10% FBS, 2% penicillin-streptomycin, 100 nM dexamethasone, 1 nM insulin, and 10 mM HEPES). After incubation for 6 hr at 37° C. and 5% CO2, the attached cells were washed once in 1×PBS and then incubated overnight in 2 ml Low Glucose Culture Media (DMEM Low Glucose supplemented with 10% FBS, 2% penicillin-streptomycin and 10 mM HEPES for glucose production studies) or Serum Free Low Glucose Culture Media (DMEM Low Glucose supplemented with 0.5% fatty acid free BSA, 2% penicillin-streptomycin and 10 mM HEPES for lipolysis assays). […] After incubation for 8 hr at 37° C. and 5% CO2, cell culture media was collected for analysis of glucose, NEFA, and glycerol concentrations as described above. VPC was determined by measuring VPC/VEGP by PINTA as described above using 300 μL of the collected media, and multiplying this ratio by the measured glucose production rate. In a subset of studies, cells were incubated for 8 hr during the glucose production assay in media containing one of the following agents (all dissolved in 0.5% DMSO), or 0.5% DMSO vehicle: 20 μM ET-18-OCH3 (Santa Cruz), 100 μM U-73122 (Sigma), 30 nM thapsigargin (Sigma), 100 nM vasopressin (Sigma) 50 μM 2-APB (R&D Systems), 70 μM caffeine (Sigma), 1 mM malic enzyme inhibitor hydroxymalonate (Sigma). To inhibit PKA, hepatocytes were incubated in H-89 […] hydrate (Sigma, 25 μM) dissolved in media, or media lacking H-89 as a control. In the insulin treatment studies, hepatocytes were incubated in 1 nM insulin with 5% BSA and glucose production media for the duration of the glucose production assay. In the in vitro atglistatin study, hepatocytes were incubated in 10 μM atglistatin in 0.1% EtOH, or 0.1% EtOH vehicle. All values were normalized to total protein content determined from whole-cell lysates by a BCA protein assay (Thermo Fisher Scientific) according to the manufacturer's instructions and expressed as fold change verses vehicle-treated cells.

[3] = system: HPA axis, WAT lipolysis, and hepatic gluconeogenesis; type: in vivo, rat
Description: Blood samples were taken at 14, 16, and 18 hr of the fast for measurement of substrate/hormone concentrations and turnover of each tracer, as described below. […] Liver and muscle glycogen concentrations were assessed using amyloglucosidase digestion. Liver TAG content was measured using the method of Bligh and Dyer (Bligh and Dyer, Can. J. Biochem. Physiol. 37, 911-917, 1959): lipids were extracted from livers using 2:1 chloroform:methanol, and the Sekisui triglyceride-SL reagent was used to measure triglyceride content spectrophotometrically. Liver and muscle DAG content and liver acetyl- and malonyl-CoA concentrations were measured by LC-MS/MS as described by Yu and Perry (Yu, et al. J. Biol. Chem. 2002, 277, 50230-50236; Perry, et al., J. Clin. Invest. 2017, 127, 657-669). […] The samples were homogenized in […] ice-cold methanol using a TissueLyser and filtered through a Nanosep filter. LC-MS/MS (AbSCIEX 6500 QTRAP with a Shimadzu ultrafast liquid chromatography system, negative ion mode) was again used to monitor the relevant ion pairs: succinate and [^13C4]succinate, 117/99 and 121/103, respectively; malate and [^13C4]malate, 133/115 and 137/119, respectively; and citrate and [13C6]citrate, 191/173 and 197/179, respectively. […] Hepatic PKCε translocation, gluconeogenic enzyme protein expression, ApoB (antibody from Meridian Life Science, Memphis, Tenn.), and PGC1α (antibody from Santa Cruz Biotechnology, Dallas, Tex.) protein expression were assessed by western blot. Expression of each of these proteins was normalized to GAPDH.

[4] = system: HPA axis, WAT lipolysis, endogenous glucose production; experiment: Leptin dose-response in streptozotocin-induced type 1 diabetic rats; type: in vivo, rat; details: T1D rats
Text: Male Sprague-Dawley rats were ordered from Charles River Laboratories (Wilmington, Mass.) at ˜250 g and were group housed (3 per cage) for 1-2 weeks until they underwent surgery under general isoflurane anesthesia for placement of polyethylene catheters in the common carotid artery (PE50 tubing, Instech Solomon, Plymouth Meeting, Pa.), and the jugular vein (PE90 tubing, Instech), and/or the portal vein (PE50 tubing, Instech), after which they were singly housed until sacrifice. Unless otherwise specified, rats were fed a regular chow diet (Harlan Teklad #2018, Indianapolis, Ind.) throughout, and fasted as described below. […] In order to induce T1D, rats were injected with streptozotocin (65 mg/kg IP, Sigma Aldrich, St. Louis, Mo.) 24 hr prior to the start of a leptin infusion study and were fasted overnight 12 hr after streptozotocin injection.
In order to examine the physiologic impact of varying doses of leptin on glucose, hormones, and lipolysis, rats were infused with stepwise increasing doses of leptin during a continuous infusion of [1,2,3,4,5,6,6-^2H7]glucose, [U-^13C16]palmitate, [1,1,2,3,3-^2H5] glycerol, and [U-^13C4] β-hydroxybutyrate starting at hour 42 of a 48 hr fast. From 42-43.5 hr of the fast rats were infused with tracer only, from hours 43.5-45 they were infused with 20 pmol/(kg-min) leptin, from hours 45-46.5 they were infused with 60 pmol/(kg-min) leptin, and from 46.5-48 hr the infusion rate was 600 pmol/(kg-min). Blood samples were taken at 43.5, 45, 46.5, and 48 hr for measurement of substrate/hormone concentrations and turnover of each tracer, as described below. In the T1D leptin dose response studies, overnight (12 hr) fasted rats were infused with stepwise increasing dose of leptin during the same tracer infusion as described above. From 12-14 hr of the fast rats were infused with tracer only, from 14-16 hr they were infused with 50 pmol/(kg-min) leptin, and from hours 16-18 they were infused with 600 pmol/(kg-min) leptin. Blood samples were taken at 14, 16, and 18 hr of the fast for measurement of substrate/hormone concentrations and turnover of each tracer, as described below.

[5] = supraphysiologic leptin treatment
[6] = supraphysiologic leptin (˜1300 pM)

In the case of `CNC[C@H](O)c1ccc(O)c(O)c1` [Epinephrine, epinephrine], the “VPDH/VCS (%)” value [1] is reported as 4.3 ± 1.0%, the “VPK+ME/VPC+PDH (%)” value [1] is reported as 5.4 ± 0.1% and the “VPC/VEGP (%)” value [1] is reported as 67 ± 2%.
For `O=C(O)C(O)C(=O)O` [ME inhibitor, hydroxymalonate], the “VPDH/VCS (%)” value [1] was 2.0 ± 1.1%, the “VPK+ME/VPC+PDH (%)” value [1] was 7.9 ± 2.1% and the “VPC/VEGP (%)” value [1] was 50 ± 2%. For the same compound, the “basal or glucagon-stimulated glucose production or VPC” value [2] was “no impact”.
`[13CH3]C(O)C(=O)O` (stereo not shown) [[3-^13C]lactate] gave a plasma lactate enrichment ([1]; rats infused with 40 μmol/(kg-min)) of ~45%.
With “leptin: leptin hormone infused at stepwise increasing doses” the “plasma FGF-21 concentrations” value ([3]; 48-hr fasted rats) was “dose-dependent reduction”, the “plasma growth hormone concentrations” value ([3]; 48-hr fasted rats) was “no difference” and the plasma corticosterone ([3]; all three infusion rates) was “suppressed”. The plasma insulin concentrations ([3]; highest dose) was “increased”, the “increase in plasma epinephrine and norepinephrine concentrations” value ([3]; highest infusion rate) was 2- to 3 fold and the “fatty acid and glycerol turnover” value ([3]; physiologic leptin replacement) was “suppressed”. For the same compound, the “plasma NEFA, glycerol, β-hydroxybutyrate, and lactate concentrations” value ([3]; physiologic leptin replacement) was “suppression”, the hepatic glucose production ([3]; plasma leptin ˜60 pM) was “lowered” and the plasma glucose concentrations ([3]; plasma leptin ˜60 pM) was “lowered”. The “plasma glucose concentrations and hepatic glucose production” value ([3]; plasma leptin ˜150 pM and ˜1250 pM) was “unable to lower”, the “plasma NEFA, glycerol, β-hydroxybutyrate, and lactate concentrations” value ([3]; supraphysiologic leptin infusions) was “increases” and the “fatty acid and glycerol turnover” value [3, 5] was “increased”. For the same compound, the “hepatic acetyl-CoA content and β-hydroxybutyrate turnover” value [3, 5] was “increases”, the HPA axis activity ([4]; both doses) was “suppressed” and the WAT lipolysis ([4]; leptin ˜60 pM) was “suppression”. For the same compound, the “suppression of WAT lipolysis” value ([4]; leptin ˜1300 pM) was “abrogated”, the “plasma glucose concentrations and endogenous glucose production rates” value ([4]; physiologic leptin replacement (˜60 pM)) was “marked reduction” and the growth hormone concentrations ([4]; supraphysiologic leptin) was “without any change”. For the same compound, the “increase in plasma catecholamine concentrations” value [4, 6] was 4 fold and the “plasma glucose concentrations and endogenous glucose production” value [4, 6] was “increases”.
